Measurements as given in US20150232420A1, “TRANSGLUTAMINASE TG2 INHIBITORS, PHARMACEUTICAL COMPOSITIONS, AND METHODS OF USE THEREOF” (priority 2012, published 2015).
Read-outs that look alike come from different tables or passages of the source.

Key:
human TG2 = molecular target: T1, human TG2 (Homo sapiens, UniProt P21980); assay: fluorescent screening assay for human TG2; assay type: biochemical
T1 sequence (P21980 1-687): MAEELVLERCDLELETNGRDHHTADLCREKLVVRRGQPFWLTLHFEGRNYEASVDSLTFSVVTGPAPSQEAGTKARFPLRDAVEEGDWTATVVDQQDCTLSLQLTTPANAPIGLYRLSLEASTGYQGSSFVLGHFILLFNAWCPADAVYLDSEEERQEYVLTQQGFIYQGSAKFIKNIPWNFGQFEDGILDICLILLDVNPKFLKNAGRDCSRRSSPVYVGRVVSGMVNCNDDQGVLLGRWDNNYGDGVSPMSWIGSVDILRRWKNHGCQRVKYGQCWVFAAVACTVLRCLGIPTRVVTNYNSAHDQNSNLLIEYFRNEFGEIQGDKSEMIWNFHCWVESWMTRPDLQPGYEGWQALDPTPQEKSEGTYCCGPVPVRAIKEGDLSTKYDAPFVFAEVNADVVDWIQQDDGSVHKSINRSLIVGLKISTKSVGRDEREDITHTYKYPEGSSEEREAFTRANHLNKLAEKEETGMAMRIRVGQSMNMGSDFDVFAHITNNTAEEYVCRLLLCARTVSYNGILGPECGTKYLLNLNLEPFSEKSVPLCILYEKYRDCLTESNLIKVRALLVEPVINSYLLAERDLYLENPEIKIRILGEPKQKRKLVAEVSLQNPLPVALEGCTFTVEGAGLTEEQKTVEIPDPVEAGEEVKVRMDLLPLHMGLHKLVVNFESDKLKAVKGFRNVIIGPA
Description: The fluorescent screening assay for human TG2 was performed as described herein: Assay conditions were 20 nM TG2, 8 μM N,N-dimethylated Casein (NMC) and 16 μM K×D (used for all transglutaminase assays) in 25 mM Hepes, pH 7.4, 250 mM NaCl, 2 mM MgCl2, 0.5 mM CaCl2, 0.2 mM DTT, 0.05% Pluronic F-127 at 37° C. A time point was taken with a microplate reader (Safire or Ultra, Tecan; ex: 350 nm, em: 535 nm) every 3 minutes for up to 2 hours and the initial linear reaction progress was used to determine the reaction velocity as a measure for enzyme activity. Assay conditions were identical for human TG6 and similar for human TG1 and mouse TG2 apart from enzyme concentration (mTG2 at 5 nM; TG1 at 10 nM) and CaCl2 concentration (0.2 mM for mTG2; 0.05 mM for TG1). Factor XIIIa was activated using 0.1 μg/μl thrombin (Sigma) in 35 mM Tris pH 8.0 for 20 min at 30° C. and the transamidation reaction was performed with 20 nM Factor XIIIa in 50 mM Tris pH 8.0, 1.25 mM CaCl2, 0.05% Pluronic, 0.2 mM DTT. TG3 was activated with 0.02 μg/μl thrombin under the same conditions as Factor XIIIa and assay conditions were 10 nM TG3 in 50 mM Hepes, pH 8, 20 mM CaCl2, 0.2 mM DTT, 0.05% Pluronic F-127.

kinetic solubility assay = assay type: physicochemical; settings: for solubility in a kinetic solubility assay: in words; for Aq. Sol.: kinetic solubility
[1] = Liver microsomal stability (human); assay type: in vitro ADME; settings: for metabolic stability in liver microsomal stability testing: human, in words; for microsomal CLint at 1 μM: pooled liver microsomes, pH 7.4, human liver microsomes, 0.25 mg protein/mL, NADPH, read-out: hLM Clint
Description: (§1) Incubations of test compound (1 μM initial concentration, n=2) were carried out with pooled hepatic liver microsomes (0.25 mg protein/mL in 0.1 M phosphate buffer pH7.4). NADPH (1 mM) was added to initiate the reactions. The incubations were performed at 37° C. Samples (100 μL) were taken from the incubation at 0, 5, 10, 20 and 40 min and added to 100 μL of acetonitrile containing carbamazepine as analytical internal standard, to terminate the reaction. Samples were centrifuged and the supernatant fractions analyzed using LC-MS/MS.
(§2) For all incubations, the instrument response (i.e. chromatographic peak area or peak height, normalized by internal standard), at each time-point were referenced to the zero time-point samples (as 100%) in order to determine the percentage of compound remaining at that time-point. Plots of the natural logarithm (Ln) of the percent of parent remaining for each compound, versus time, were used to determine the half-life in the incubation of interest.
(§3) Half-life values (t1/2) were calculated from the relationship: t1/2 (min)=−0.693/λ where λ was the slope of the Ln concentration versus time curve.
For incubations in hepatic liver microsomes, the in vitro intrinsic clearance, Clint (μL/min/mg microsomal protein), was calculated using the following formula:
Clint=(0.693/t1/2 microsomal)*(ml incubation/mg microsomal protein)*(mg microsomal protein/g liver)*(g liver/kg body weight)

Plasma stability (mouse) = assay type: in vitro ADME; settings: pooled plasma
Description: (§4) Incubations of test compound (1 μM initial concentration, n=2) were carried out with pooled plasma or BSA (45 mg/mL in 0.1 M phosphate buffered saline pH 7.4). The incubations were performed at 37° C. Samples (50 μL) were obtained from the incubation at 0, 10, 30, 120, 240, 360 and 1440 min, and added to 150 μL of acetonitrile containing carbamazepine as analytical internal standard to terminate the reaction. Samples were centrifuged and the supernatant fractions analyzed using LC-MS/MS.
as §2, §3

Plasma stability (human) = assay type: in vitro ADME; settings: pooled plasma
Description: as §4, §2, §3

[2] = Permeability in wild type MDCK monolayers; assay type: in vitro ADME; settings: dog; wild type MDCK, apical to basolateral, 10 μM, pH 7.4; read-out: MDCK-WT Papp A-B
Description: (§5) The MDR1-MDCKII and wild type MDCKII cell lines were cultured in accordance with the guidelines provided by Solvo Biotechnology. Both wild-type MDCK and MDR1-MDCK cells were seeded at a cell density of 2.3×10^5 cells/well into 24-well Transwell plates and cultured for three days to form monolayers. Test compound was loaded into the donor compartments of the Transwell plate (24-well) bearing MDR1-MDCK or wild type MDCK monolayers. Test compound was added to either the apical or basolateral chambers of the Transwell plate assembly at a concentration of 10 μM in Hanks' Balanced Salt Solution containing 25 mM HEPES (pH 7.4). Lucifer Yellow was added to the apical buffer in all wells and its permeation monitored to assess integrity of the cell layer. As Lucifer Yellow (LY) cannot freely permeate lipophilic barriers, a high degree of LY transport indicates poor integrity of the cell layer and wells with LY permeability >100 nm/s are rejected.

[3] = tested on: wild type MDCKII cell line; assay: Permeability in wild type MDCK monolayers; assay type: in vitro ADME; settings: MDCK study; in words
Description: as §5

P-glycoprotein (P-gp) = molecular target: T2, P-glycoprotein (P-gp) (Homo sapiens, UniProt P08183); assay: Effective efflux ratio in MDCK-MDR1; assay type: in vitro ADME; settings: for active efflux via P-gp: MDCK-MDR1 transfected cell line, in words; for MDCK-MDR1 EER: effective efflux ratio, 10 μM
T2 construct: host or cells: MDCKII (MDR1-MDCKII)
T2 sequence (P08183 whole entry): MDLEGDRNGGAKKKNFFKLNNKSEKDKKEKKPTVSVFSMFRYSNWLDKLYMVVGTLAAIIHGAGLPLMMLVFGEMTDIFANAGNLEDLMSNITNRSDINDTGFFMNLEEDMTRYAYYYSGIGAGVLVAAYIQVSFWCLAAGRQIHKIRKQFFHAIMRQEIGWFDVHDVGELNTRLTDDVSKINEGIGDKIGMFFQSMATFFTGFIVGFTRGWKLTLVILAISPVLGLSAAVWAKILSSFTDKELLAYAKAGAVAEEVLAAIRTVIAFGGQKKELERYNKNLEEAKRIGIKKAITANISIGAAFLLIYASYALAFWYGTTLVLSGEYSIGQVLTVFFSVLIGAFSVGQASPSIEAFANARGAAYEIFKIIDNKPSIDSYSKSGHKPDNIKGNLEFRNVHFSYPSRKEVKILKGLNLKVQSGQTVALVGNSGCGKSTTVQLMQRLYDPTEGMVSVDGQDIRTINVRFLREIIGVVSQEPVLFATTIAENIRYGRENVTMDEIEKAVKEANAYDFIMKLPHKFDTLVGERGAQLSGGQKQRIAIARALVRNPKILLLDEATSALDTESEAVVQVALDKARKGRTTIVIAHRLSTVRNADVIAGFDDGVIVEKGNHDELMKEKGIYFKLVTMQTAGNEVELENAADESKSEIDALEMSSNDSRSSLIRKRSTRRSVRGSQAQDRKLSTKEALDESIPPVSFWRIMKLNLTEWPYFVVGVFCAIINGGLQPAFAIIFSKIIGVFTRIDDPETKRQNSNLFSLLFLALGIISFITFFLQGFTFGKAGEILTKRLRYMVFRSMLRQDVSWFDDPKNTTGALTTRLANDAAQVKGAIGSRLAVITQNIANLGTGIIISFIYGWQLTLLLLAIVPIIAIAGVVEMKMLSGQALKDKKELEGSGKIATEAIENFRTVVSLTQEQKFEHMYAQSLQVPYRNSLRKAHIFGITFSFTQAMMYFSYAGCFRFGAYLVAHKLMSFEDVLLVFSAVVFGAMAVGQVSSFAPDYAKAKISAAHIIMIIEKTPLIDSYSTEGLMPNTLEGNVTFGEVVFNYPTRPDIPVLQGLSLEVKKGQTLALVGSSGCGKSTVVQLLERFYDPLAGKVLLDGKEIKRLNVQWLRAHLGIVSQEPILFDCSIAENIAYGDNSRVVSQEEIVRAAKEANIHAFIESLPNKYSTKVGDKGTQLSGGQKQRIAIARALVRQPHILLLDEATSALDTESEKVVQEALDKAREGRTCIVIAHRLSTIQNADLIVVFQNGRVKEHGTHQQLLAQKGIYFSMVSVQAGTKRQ
Description: as §5
P-glycoprotein (P-gp) is one of the main efflux transporters in brain; the potential for compound 1 and compound 2 to be effluxed by P-gp was assessed in an MDCK-MDR1 transfected cell line.

[4] = Liver microsomal stability (mouse); assay type: in vitro ADME
Description: as §1, §2, §3
For incubations in hepatic liver microsomes, the in vitro intrinsic clearance, Clint (μL/min/mg microsomal protein), was calculated using the following formula: […]

[5] = Table 7, 20 nM TG2, 37° C., read-out: IC50
[6] = mouse plasma, 1 μM, 37° C., read-out: Mouse Plasma T1/2
[7] = read-out: half-life in mouse plasma
[8] = human plasma, 1 μM, 37° C., read-out: Human Plasma T1/2
[9] = read-out: half-life in human plasma

## C=CC(=O)NCCCC[C@H](NC(=O)OCc1ccccc1)C(=O)N1CCN(c2ccccc2Cl)CC1 [compound 1, benzyl N-[(2S)-1-[4-(2-chlorophenyl)piperazin-1-yl]-1-oxo-6-(prop-2-enamido)hexan-2-yl]carbamate]
Human TG2; [5]
  IC50: < 100 nM
Human TG2; Table 8, read-out: TG2 IC50
  IC50: 14 nM
Kinetic solubility assay
  solubility in a kinetic solubility assay: good solubility
  Aq. Sol.: 0.87 mg/mL
[1]
  metabolic stability in liver microsomal stability testing: poor
  microsomal CLint at 1 μM: > 1390 µL/min/mg
Plasma stability (mouse); [6]
  half-life at 1 μM: > 24 h
Plasma stability (mouse); [7]
  half-life at 1 μM: > 24 h
Plasma stability (human); [8]
  half-life at 1 μM: > 24 h
Plasma stability (human); [9]
  half-life at 1 μM: > 24 h
[2]
  Papp A→B at 10 μM: 14.2 ×10⁻⁶ cm/s
[3]
  permeability: good permeability
P-glycoprotein (P-gp)
  active efflux via P-gp: high active efflux
  MDCK-MDR1 EER: 118

## C=CC(=O)NCCCC[C@H](NC(=O)Cc1ccccc1)C(=O)N1CCN(c2cccc(C)n2)CC1 [compound 2, N-[(5S)-6-[4-(6-methylpyridin-2-yl)piperazin-1-yl]-6-oxo-5-(2-phenylacetamido)hexyl]prop-2-enamide]
Human TG2; [5]
  IC50: < 100 nM
Human TG2; Table 8, read-out: TG2 IC50
  IC50: 60 nM
Kinetic solubility assay
  solubility in a kinetic solubility assay: good solubility
  Aq. Sol.: 0.06 mg/mL
[4]; mouse, in words
  metabolic stability in liver microsomal stability testing: poor
[4]; pooled liver microsomes, pH 7.4, mouse liver microsomes, 1 μM, 0.25 mg protein/mL, NADPH, read-out: mLM Clint
  microsomal CLint at 1 μM: > 1390 µL/min/mg
[1]
  metabolic stability in liver microsomal stability testing: poor
  microsomal CLint at 1 μM: > 1390 µL/min/mg
Plasma stability (mouse); [6]
  half-life at 1 μM: > 8 h
Plasma stability (mouse); [7]
  half-life at 1 μM: > 24 h
Plasma stability (human); [8]
  half-life at 1 μM: > 8 h
Plasma stability (human); [9]
  half-life at 1 μM: > 24 h
[2]
  Papp A→B at 10 μM: 30.3 ×10⁻⁶ cm/s
[3]
  permeability: good permeability
P-glycoprotein (P-gp)
  active efflux via P-gp: high active efflux
  MDCK-MDR1 EER: 7.1
